Marks after values point to notes of the source that are not given here.
Assays:
DNA from salmon sperm [1] = assay: UV-Vis spectrophotometric titration, association with DNA from salmon sperm; type: binding; details: 1:1 complex, Tris-HCl buffer pH 7.44, CDNA 2.5 × 10^–7 M, BindFit
Description: The interaction of GIS with a series of synthesized pillar[5]arenes 1–4 and DNA was studied by UV-Vis spectroscopy. UV-Vis spectroscopy is a universal method to study the complex properties of synthetic receptors. The interaction of GIS with DNA from salmon sperm was initially studied (Figure 5). DNA from salmon sperm was chosen as a model substrate due to its relatively low molecular weight and small size. The experiments were carried out in a Tris-HCl buffer system (pH = 7.44).
The association constants were determined by spectrophotometric titration to quantify the interaction of DNA with GIS. The UV-Vis spectra of the DNA–GIS system were recorded in such a way that the DNA concentration remained constant (2.5 × 10^–7 M), and the herbicide concentration ratio increased from 1:0.3 to 1:10 (Figure 5b). The obtained experimental data were processed by the BindFit program. The association constant of a 1:1 complex was calculated (Figure S23). The logarithm of the association constant of DNA with GIS was determined as lgKa = 4.92. […] However, in this case, the association constant of the complexes was determined with a large error.
Further, the interaction of macrocycles 1–4 with the DNA from salmon sperm in Tris-HCl was studied by UV-Vis spectroscopy. […] The association constant of compound 4-DNA complex was determined by spectrophotometric titration. […] The logarithm of the association constant of pillar[5]arene 4 with the DNA was determined as lgKa (4–DNA) = 5.24.
The association constant of compound 1-DNA complex was also determined by spectrophotometric titration (Figure S25b). The logarithm of the association constant of pillar[5]arene 1 with DNA was determined as lgKa(1–DNA) = 4.88 (Figure S27). […]
(§1) buffer solution. The UV spectra of the solutions were then recorded. The stability constant of complex was calculated by Bindfit. […]
(§2) volume of 3 mL with Tris‐HCl buffer solution. The UV spectra of the solutions were then recorded. The stability constant of each complex was calculated by Bindfit. […]
(§3) stability constant of complex was calculated by Bindfit. […]

LEC cells = assay: MTT test, LEC cells
Description: The next stage of this work was the study of pillar[5]arenes 1–4 ability to inhibit the viability and proliferative activity of embryonic lung epithelial (LEC) and human lung adenocarcinoma (A549) cells using the MTT test.
Further, the ability of GIS to inhibit the viability and proliferative activity of LEC and A549 cells was studied by the MTT test. […] The average inhibitory concentration (IC50) was calculated for GIS (Table 3). […]
1.6. Cytotoxicity of pillar[5]arenes 1–4, GIS and their mixtures on A549 and LEC Cell Lines […]
activity of LEC cells and A549 cells was investigated using the MTT test according to [2]. A549 – human alveolar adenocarcinoma cell line (ATCC, Rockville, Maryland, USA) and cow embryo lung epithelial (LEC) cells (Animal Cell Culture Collection of Russian Academy of Agricultural Science, Kazan, Russia) were cultured in DMEM (GIBCO, Waltham, MA, USA) medium supplemented with 10% serum and 100 units/mL of penicillin (PanEco, Moscow, Russia) and streptomycin (PanEco, Moscow, Russia) in a humidified atmosphere with 5% CO2 at 37 °C. Cells were seeded in 96‐well plates at a concentration of 10^4 cells/well. After 24 h of cultivation, the medium was removed from the wells and replaced with a fresh one with the addition of the test substances. The volume of the culture medium in the wells was 100
μL. After 24 h incubation of cells in the presence of substances, the medium in the wells was replaced with a fresh one containing MTT reagent at a final concentration of 0.5 mg/mL. The cells were incubated with MTT for 4 h at 37 °C in an atmosphere of 5% CO2. Then, the medium was aspirated from the wells and 100 μL of dimethyl sulfoxide was added. Probes were incubated at 37 °C for 15 min in the dark for the formazan crystals to dissolve. The optical density of the formazan solution in the wells was measured using a plate reader (BioRad xMarkTM Microplate Spectrophotometer, USA) at a wavelength of 570 nm.
Three series of experiments were carried out with at least 8 replications for each variant in the series. […]

DNA from salmon sperm [2] = assay: UV-Vis spectrophotometric titration of (pillar[5]arene-DNA) associates with GIS; type: binding; details: 1:1 composition, Tris-HCl buffer, CPA 3 × 10^–6 M, CDNA 2.5 × 10^–7 M, GIS 1:0.3 to 1:10
Text: It is well known that water-soluble derivatives of pillar[5]arene can applicate as antidotes for various drugs. The interaction of GIS with DNA with a logarithm of the association constant of 4.92 was shown. […] In this regard, a hypothesis about the possibility of using the synthesized macrocycles as a glyphosate antidote for DNA protection was proposed. Therefore, the behavior of the associate (macrocycle-DNA) with GIS was studied by UV-Vis spectroscopy to test the hypothesis above. First, a solution of DNA (2.5 × 10^–7 M) was added to the macrocycle (1–4) solution (3 × 10^–6 M). Then the herbicide solution (CGIS = 3 × 10^–6 M) was added to the resulting associate, and the absorption spectrum of the resulting ternary system was recorded. […]
Further, the interaction of the (pillar[5]arene–DNA) associated with GIS was quantified (Figure 7c,d and Figure S28). […] The effective association constants of the (macrocycle-DNA)-GIS associates of 1:1 composition were calculated (Table 2). […]
as §1, §2, §3

## C[N+](C)(CCCNC(=O)COc1cc2c(OCC(=O)NCCC[N+](C)(C)CC(=O)N[C@@H](Cc3ccccc3)C(=O)[O-])cc1Cc1cc(OCC(=O)NCCC[N+](C)(C)CC(=O)N[C@@H](Cc3ccccc3)C(=O)[O-])c(cc1OCC(=O)NCCC[N+](C)(C)CC(=O)N[C@@H](Cc1ccccc1)C(=O)[O-])Cc1cc(OCC(=O)NCCC[N+](C)(C)CC(=O)N[C@@H](Cc3ccccc3)C(=O)[O-])c(cc1OCC(=O)NCCC[N+](C)(C)CC(=O)N[C@@H](Cc1ccccc1)C(=O)[O-])Cc1cc(OCC(=O)NCCC[N+](C)(C)CC(=O)N[C@@H](Cc3ccccc3)C(=O)[O-])c(cc1OCC(=O)NCCC[N+](C)(C)CC(=O)N[C@@H](Cc1ccccc1)C(=O)[O-])Cc1cc(OCC(=O)NCCC[N+](C)(C)CC(=O)N[C@@H](Cc3ccccc3)C(=O)[O-])c(cc1OCC(=O)NCCC[N+](C)(C)CC(=O)N[C@@H](Cc1ccccc1)C(=O)[O-])C2)CC(=O)N[C@@H](Cc1ccccc1)C(=O)[O-] [Compound 4, 4,8,14,18,23,26,28,31,32,35-Decakis-[(N-[3’-dimethyl({oxidocarbonyl[S-benzyl]methyl}aminocarbonylmethyl)ammonio]propyl)aminocarbonylmethoxy]-pillar[5]arene]
DNA from salmon sperm [1]
  lgKa, logarithm of the association constant with DNA: 5.24
LEC cells; MTT, 24 h
  IC50: >100 * μg/mL
LEC cells; concentration range 2–100 μg/mL
  cytotoxic activity: did not show statistically significant cytotoxic activity
DNA from salmon sperm [2]
  lgKa of (pillar[5]arene-DNA) associate with GIS: decrease in lgKa by more than an order of magnitude
DNA from salmon sperm [2]; listed as betaine pillar[5]arene containing fragments of L-Phe
  lgKa of (pillar[5]arene-DNA) associate with GIS: 3.60
